The values below are quoted from earlier work in publication PMC8146568, “Thermococcus bergensis sp. nov., a Novel Hyperthermophilic Starch-Degrading Archaeon” (Biology, 2021).

One may read the Km as the substrate concentration at which the rate is half of its maximum.

Molecules are shown by their SMILES. Read-outs that look alike come from different tables or passages of the source.

The subject of this data set is T1, glyceraldehyde-3-phosphate ferredoxin oxidoreductase (GAPOR).
T1 construct: gene gor; native, purified from starch-grown culture of "strain 7324" (DSM 8774 mixed culture, formerly attributed to Archaeoglobus fulgidus); 66 kDa monomer; N-terminus MRFSVLKINLNEKKVX(X)EVFEREXV
The data set is described as follows: benzyl viologen-dependent GAP oxidation, steady-state kinetics. The format is biochemical, Thermococcus bergensis. The following applies: pH 7.8, 50 °C, read-out: apparent Km.

`c1ccc(C[n+]2ccc(-c3cc[n+](Cc4ccccc4)cc3)cc2)cc1` [BV, benzyl viologen]: the Km (artificial electron acceptor, GAP as co-substrate) was 4000 µM.
For `O=C[C@H](O)COP(=O)(O)O` [GAP, glyceraldehyde-3-phosphate], the Km (benzyl viologen as electron acceptor) was 5 µM.
